{
  "source": "paper PMC9587005",
  "about": "“Phosphatidic Acid Mediates the Nem1-Spo7/Pah1 Phosphatase Cascade in Yeast Lipid Synthesis” (Journal of Lipid Research, 2022)",
  "molecular_target": "T1, Nem1-Spo7 protein phosphatase complex (Saccharomyces cerevisiae, UniProt P38757)",
  "T1 construct": "Protein A-tagged Nem1 with Spo7, overexpressed in S. cerevisiae RS453, IgG-Sepharose purified, reconstituted into phospholipid vesicles",
  "T1 sequence (P38757 1-446)": "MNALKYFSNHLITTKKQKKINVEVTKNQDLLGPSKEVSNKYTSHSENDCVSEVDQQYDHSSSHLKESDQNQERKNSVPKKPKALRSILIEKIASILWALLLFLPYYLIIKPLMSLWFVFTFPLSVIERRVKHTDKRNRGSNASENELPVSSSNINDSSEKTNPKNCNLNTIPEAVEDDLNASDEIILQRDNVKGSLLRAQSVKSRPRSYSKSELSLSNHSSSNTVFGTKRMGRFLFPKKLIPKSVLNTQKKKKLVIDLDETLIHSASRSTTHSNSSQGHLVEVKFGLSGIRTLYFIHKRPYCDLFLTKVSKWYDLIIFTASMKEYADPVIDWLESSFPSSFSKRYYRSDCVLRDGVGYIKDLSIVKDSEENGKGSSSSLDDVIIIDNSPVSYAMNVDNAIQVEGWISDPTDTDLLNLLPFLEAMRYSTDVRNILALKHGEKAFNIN",
  "T1 sequence (P18410 1-259 partner)": "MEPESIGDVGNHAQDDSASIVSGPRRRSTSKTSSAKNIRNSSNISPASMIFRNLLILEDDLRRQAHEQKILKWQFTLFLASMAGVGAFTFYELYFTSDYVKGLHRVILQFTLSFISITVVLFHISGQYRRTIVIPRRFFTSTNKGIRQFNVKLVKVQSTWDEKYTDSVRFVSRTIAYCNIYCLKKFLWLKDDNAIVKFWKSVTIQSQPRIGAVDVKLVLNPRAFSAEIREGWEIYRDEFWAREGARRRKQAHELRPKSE",
  "experiment": "release of […] from […]Pah1, proteoliposomes",
  "type": "biochemical",
  "conditions": "activator (cooperative), direct binding not shown, membrane effect possible; reconstituted in PC/PE/PI/PS vesicles; substrate Pah1 phosphorylated by Pho85-Pho80; 10 mM MgCl2, pH 5.0, 30 °C",
  "data": [
    {"smiles": "CCCCCCCC/C=C\\CCCCCCCC(=O)OC[C@H](COP(=O)(O)O)OC(=O)CCCCCCC/C=C\\CCCCCCCC", "note": "[PA]", "values": [
      {"measurement": "fold stimulation at 10 mol %", "value": 3.6, "unit": "fold"}
    ]}
  ]
}
